# Earlier results as cited in patent US20030013675A1 (Boehringer Ingelheim Pharma KG, priority 2001, published 2003).
# Tests used:
# [1] = tested on: Human Neutrophils
# [2] = tested on: adherent human monocyte; conditions: in particular human peripheral blood monocyte
# [3] = tested on: antigen-challenged pig; conditions: in vivo
# [4] = tested on: guinea pig eosinophils
# [5] = inhaled at several times the recommended dose
smiles,measurement,setting,value
CCNC(=O)[C@H]1OC(n2cnc3c(N)nc(NCCc4ccc(CCC(=O)O)cc4)nc32)[C@H](O)[C@@H]1O (stereo partly shown) [CGS 21680],neutrophil superoxidase release,[1],inhibits
same,endotoxin-stimulated adherent human monocyte TNFα production,[2],decreases
CCCn1c(=O)c2c(C)nc(CC)n2c2nc(OC)ccc21 [Example D-22888],antiallergic effect,[3],strong antiallergic affect
same,rhinorrhea in the antigen-challenged pig,[3],inhibit rhinorrhea
CCNC(=O)[C@@H]1O[C@H](n2cnc3c(N)ncnc32)[C@@H](O)[C@H]1O [NECA],zymosan-stimulated oxidative activity in guinea pig eosinophils,[4],inhibits
CC[N+]1(C)[C@@H]2CC(OC(=O)[C@H](CO)c3ccccc3)C[C@H]1[C@@H]1O[C@@H]12 (stereo partly shown) [oxitropium],"change in heart rate, blood pressure, bladder function, intraocular pressure, or pupillary diameter",[5],little or no change
"C[N+]1(C)[C@@H]2C[C@@H](OC(=O)C(O)(c3cccs3)c3cccs3)C[C@H]1[C@@H]1O[C@@H]12 [tiotropium, (1α, 2β, 4β, 5α, 7β)-7-[(hydroxydi-2-thienylacetyl)oxy]-9,9-dimethyl-3-oxa-9-azoniatricyclo[3.3.1.0^2,4]nonane bromide]","change in heart rate, blood pressure, bladder function, intraocular pressure, or pupillary diameter",[5],little or no change
